Each structure is given as a SMILES string.

As to `ClC1=C(Cl)[C@]2(Cl)C3C(Cl)C(Cl)CC3[C@@]1(Cl)C2(Cl)Cl` (some centres undefined), the logP came to 5.89.
Consider `CC(Cl)(Cl)C(=O)O`, for which the lipophilicity (logP) was 1.34.
Molecule `CCCN(CCC)c1c([N+](=O)[O-])cc(S(C)(=O)=O)cc1[N+](=O)[O-]` displayed a logP of 4.78.
For the molecule `Nc1cc(Cl)cc(C(=O)O)c1Cl`, the lipophilicity (logP) is 1.46.
As for `CC(C)Nc1nc(Cl)nc(NC(C)C)n1`, the logP worked out at 3.09.
For `COC(=O)C=C(C)OP(=O)(OC)OC` the value was 0.55; for `CN(C)C(=O)C(c1ccccc1)c1ccccc1`, 2.17.
`CCC(C)n1c(=O)[nH]c(C)c(Br)c1=O` (centres undefined) had a logP of 1.33.
`CCC(C)Nc1c([N+](=O)[O-])cc(C(C)(C)C)cc1[N+](=O)[O-]` (centres undefined) displayed a logP of 4.54.
In the case of `CCCN(CC1CC1)c1c([N+](=O)[O-])cc(C(F)(F)F)cc1[N+](=O)[O-]`, the logP stood at 5.16.
For `O=C(O)c1c(Cl)ccc(Cl)c1Cl` the value was 4.34.
Take `Cc1cc(Cl)ccc1OCC(=O)O`: the logP was 2.69.
For `CC(C)OC(=O)Nc1cccc(Cl)c1` the value was 3.42; for `Cc1[nH]c(=O)n(C(C)(C)C)c(=O)c1Cl`, 1.44.

The values are drawn from the SangsterLogP compilation.
